Experimental data: ChEMBL document CHEMBL1201862, “PubChem BioAssay data set” (2004)
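Compound exposure: 48 hours, 5 concentrations, 96-well plates. Abbreviation: GI50, concentration required for 50% inhibition of growth.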 Active and inactive are the calls of the source. Rule as the data show it: active = GI50 up to about 1.1 µM and inactive = higher. Starred links: 1 amine or outer side, 2 acyl side, 3 side chain; linkers in the order of their positions; H or OH if unused. Positions of bridges follow the written chain, without caps; N, C: chain ends. Non-standard residues stand in square brackets, D forms with d. Residues, ends and D or L forms follow the SMILES beside them. Peptide text beside a SMILES is read from it. * marks the point of attachment. *: point of attachment. X40 = CC[C@H](C)[C@@H](N[*:1])[C@@H](O)CC(=O)[*:2]; NMeY = CN[C@@H](Cc1ccc(O)cc1)C(=O)O; dNMeL = CN[C@H](CC(C)C)C(=O)O; Hiv = CC(C)[C@H](O)C(=O)O; Pyruvoyl = CC(=O)C(=O)*; Boc = CC(C)(C)OC(=O)*

Columns and labels:
Assay in all cases: NCI tumour cell line growth inhibition, 48 h
786-0 = system: 786-0
A498 = system: A498
A549 = system: A549
ACHN = system: ACHN
HCC 2998 = system: HCC 2998
HOP-62 = system: HOP-62
KM12 = system: KM12
LOX IMVI = system: LOX IMVI
MDA-N = system: MDA-N
NCI-H226 = system: NCI-H226
NCI-H23 = system: NCI-H23
NCI-H522 = system: NCI-H522
NCI/ADR-RES = system: NCI/ADR-RES
OVCAR-5 = system: OVCAR-5
OVCAR-8 = system: OVCAR-8
SF-295 = system: SF-295
SK-OV-3 = system: SK-OV-3
SR = system: SR
T47D = system: T47D
U-251 = system: U-251

Structure (SMILES) | GI50 (786-0) | GI50 (A498) | GI50 (A549) | GI50 (ACHN) | GI50 (HCC 2998) | GI50 (HOP-62) | GI50 (KM12) | GI50 (LOX IMVI) | GI50 (MDA-N) | GI50 (NCI-H226) | GI50 (NCI-H23) | GI50 (NCI-H522) | GI50 (NCI/ADR-RES) | GI50 (OVCAR-5) | GI50 (OVCAR-8) | GI50 (SF-295) | GI50 (SK-OV-3) | GI50 (SR) | GI50 (T47D) | GI50 (U-251)
C=C[C@@]1(C)CC2(C=C(CO)C(O)O2)Oc2c1c(=O)oc1cccc(C)c21 (stereo not given in full) | 1.98 µM (inactive) | 24.2 µM (inactive) | 31 µM (inactive) | 7.78 µM (inactive) | 20.9 µM (inactive) | 17.5 µM (inactive) | 18.3 µM (inactive) | 3.61 µM (inactive) | 4.03 µM (inactive) | 17.9 µM (inactive) | 7.45 µM (inactive) | 2.33 µM (inactive) | 2.61 µM (inactive) | 17.6 µM (inactive) | 5.28 µM (inactive) | 27.7 µM (inactive) | 24.4 µM (inactive) | 2.4 µM (inactive) | 10.7 µM (inactive) | 10.9 µM (inactive)
O=C1N=C(c2ccccc2)O/C1=C\c1ccccc1 | > 100 µM (inactive) | > 100 µM (inactive) | > 100 µM (inactive) | > 100 µM (inactive) | > 100 µM (inactive) | > 100 µM (inactive) | > 100 µM (inactive) | > 100 µM (inactive) | > 100 µM (inactive) | > 100 µM (inactive) | > 100 µM (inactive) | > 100 µM (inactive) | > 100 µM (inactive) | > 100 µM (inactive) | > 100 µM (inactive) | > 100 µM (inactive) | > 100 µM (inactive) | > 100 µM (inactive) | > 100 µM (inactive) | > 100 µM (inactive)
O=C1O/C(=C\c2ccc(O)cc2)C(c2ccc(O)c(Cl)c2)=C1Cl | 50.2 µM (inactive) | 33.6 µM (inactive) | 40.1 µM (inactive) | 57.7 µM (inactive) | 38.2 µM (inactive) | 35.4 µM (inactive) | 34 µM (inactive) | 50.6 µM (inactive) | 23.5 µM (inactive) | 58.1 µM (inactive) | 33.7 µM (inactive) | 23 µM (inactive) | 36.2 µM (inactive) | > 100 µM (inactive) | 49.5 µM (inactive) | 39.4 µM (inactive) | > 100 µM (inactive) | 27.7 µM (inactive) | 59.7 µM (inactive) | 60.5 µM (inactive)
CCCc1nnc2sc(COc3ccc(OCc4nn5c(CCC)nnc5s4)c(Cl)c3)nn12 | 28.5 µM (inactive) | 23.6 µM (inactive) | 27.5 µM (inactive) | 20.9 µM (inactive) | 23.8 µM (inactive) | 47.8 µM (inactive) | 31 µM (inactive) | 33.7 µM (inactive) | 16.9 µM (inactive) | > 100 µM (inactive) | 20.2 µM (inactive) | 21.1 µM (inactive) | 30.5 µM (inactive) | 50.4 µM (inactive) | 31 µM (inactive) | 20.8 µM (inactive) | 36.6 µM (inactive) | 17.8 µM (inactive) | 2.78 µM (inactive) | 38.2 µM (inactive)
Cc1nn2c(=O)c([N+](=O)[O-])c(/C=C/c3ccc(F)cc3)nc2s1 | 10.9 µM (inactive) | 16.3 µM (inactive) | 9.06 µM (inactive) | 11.5 µM (inactive) | 11.4 µM (inactive) | 15 µM (inactive) | 7.24 µM (inactive) | 2.79 µM (inactive) | 5.96 µM (inactive) | 11.4 µM (inactive) | 15.2 µM (inactive) | 8.49 µM (inactive) | 9.77 µM (inactive) | 9.89 µM (inactive) | 6.07 µM (inactive) | 11.8 µM (inactive) | 12.6 µM (inactive) | 3.8 µM (inactive) | 4.03 µM (inactive) | 4.84 µM (inactive)
C#CC1(O)CCC2[C@@H]3CCc4cc(Oc5nc(F)nc(-c6c(C)c(C(=O)OCC)n7ccccc67)n5)ccc4C3CC[C@@]21C (stereo not given in full) | > 100 µM (inactive) | > 100 µM (inactive) | > 100 µM (inactive) | > 100 µM (inactive) | > 100 µM (inactive) | > 100 µM (inactive) | > 100 µM (inactive) | > 100 µM (inactive) | > 100 µM (inactive) | > 100 µM (inactive) | > 100 µM (inactive) | > 100 µM (inactive) | > 100 µM (inactive) | > 100 µM (inactive) | > 100 µM (inactive) | > 100 µM (inactive) | > 100 µM (inactive) | > 100 µM (inactive) | > 100 µM (inactive) | > 100 µM (inactive)
COCN1CCN=c2c1c1c3c(c4ccccc4n23)CCC1 | > 100 µM (inactive) | > 100 µM (inactive) | > 100 µM (inactive) | > 100 µM (inactive) | > 100 µM (inactive) | > 100 µM (inactive) | > 100 µM (inactive) | > 100 µM (inactive) | > 100 µM (inactive) | 10.7 µM (inactive) | > 100 µM (inactive) | > 100 µM (inactive) | > 100 µM (inactive) | > 100 µM (inactive) | > 100 µM (inactive) | > 100 µM (inactive) | > 100 µM (inactive) | > 100 µM (inactive) | > 100 µM (inactive) | > 100 µM (inactive)
COC(=O)C(Cc1ccccc1)NC(=O)C(CS)NC(=O)OC(C)(C)C (stereo not drawn) (Boc-Cys-Phe-OMe; configuration not given here) | > 100 µM (inactive) | > 100 µM (inactive) | > 100 µM (inactive) | > 100 µM (inactive) | > 100 µM (inactive) | > 100 µM (inactive) | 94.4 µM (inactive) | 69.2 µM (inactive) | > 100 µM (inactive) | > 100 µM (inactive) | > 100 µM (inactive) | > 100 µM (inactive) | > 100 µM (inactive) | > 100 µM (inactive) | > 100 µM (inactive) | > 100 µM (inactive) | > 100 µM (inactive) | 27.2 µM (inactive) | > 100 µM (inactive) | > 100 µM (inactive)
CC[C@H](C)[C@H]1NC(=O)[C@@H](NC(=O)[C@@H](CC(C)C)N(C)C(=O)[C@@H]2CCCN2C(=O)C(C)=O)[C@@H](C)OC(=O)[C@H](Cc2ccc(OC)cc2)N(C)C(=O)[C@@H]2CCCN2C(=O)[C@H](CC(C)C)NC(=O)[C@H](C(C)C)OC(=O)C[C@@H]1O (Pyruvoyl-P[dNMeL]T[X40][Hiv]LP[NMeY](Me); ester 3-C) | 0.00361 µM (active) | 0.00538 µM (active) | 0.00454 µM (active) | 0.0203 µM (active) | 0.00261 µM (active) | 0.0046 µM (active) | 0.00148 µM (active) | 0.00428 µM (active) | 0.00467 µM (active) | 0.0159 µM (active) | 0.00455 µM (active) | 0.00547 µM (active) | 0.226 µM (active) | 0.00632 µM (active) | 0.006 µM (active) | 0.00718 µM (active) | 0.00528 µM (active) | 0.001 µM (active) | 0.00404 µM (active) | 0.00239 µM (active)
